The target in test [1] is MAPK14 (human) (UniProt Q16539). The experiment in a line: Inhibition of LPS Stimulated TNF Production by U937 Cells. Conditions: for inhibition: concentration not given here.
Test [2] shares this target. Nature of the test: Inhibition of MAPK14 Kinase Activity by PHAS-I Assay. Conditions: for inhibition: concentration not given here.

“And” between values parts separate entries of the source, which are not always exact repeats. Identical values can stand only once.

Chain of MAPK14 (human) (Q16539 whole entry, looked up): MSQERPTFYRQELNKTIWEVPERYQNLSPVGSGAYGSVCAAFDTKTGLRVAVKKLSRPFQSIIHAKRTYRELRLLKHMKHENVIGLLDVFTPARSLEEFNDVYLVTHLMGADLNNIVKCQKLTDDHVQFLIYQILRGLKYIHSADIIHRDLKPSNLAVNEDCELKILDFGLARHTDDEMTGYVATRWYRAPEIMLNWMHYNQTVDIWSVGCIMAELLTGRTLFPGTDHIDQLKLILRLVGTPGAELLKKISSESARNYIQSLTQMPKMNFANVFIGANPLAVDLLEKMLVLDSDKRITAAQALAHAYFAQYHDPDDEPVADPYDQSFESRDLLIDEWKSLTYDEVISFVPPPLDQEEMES

For orientation: inhibition means how much of the control response was suppressed. For `C[C@H](NC(=O)NCCc1[nH]nc(-c2ccc(F)cc2)c1-c1ccncc1)c1ccccc1`, the inhibition on MAPK14 (human) [1] worked out at 12%; against MAPK14 (human) [2] it was 79%.
Taken in the same sequence, the figures for `CCNC(=O)NCCc1[nH]nc(-c2ccc(F)cc2)c1-c1ccncc1` were 65% and 67%.
The IC50 is the concentration at which inhibition is half-maximal. Take `C[C@H](NS(=O)(=O)C[C@@]12CC[C@H](CC1=O)C2(C)C)c1[nH]nc(-c2ccc(F)cc2)c1-c1ccncc1`: the inhibition at MAPK14 (human) [1] amounted to 60%. For the same compound, the concentration for half-maximal inhibition (IC50) against MAPK14 (human) [2] amounted to 160 nM.
On to `CNC(=O)NCCc1[nH]nc(-c2ccc(F)cc2)c1-c1ccncc1`, for which the inhibition against MAPK14 (human) [1] and against MAPK14 (human) [2] was 68% throughout.
Take `Cc1c(-c2ccncc2)c(-c2ccc(F)cc2)nn1CC(=O)[C@H]1CCCN1C(=O)OCc1ccccc1`: the results for the inhibition at MAPK14 (human) [1] and against MAPK14 (human) [2] were 19% and 79%, respectively.
For `O=C(NCCCc1[nH]nc(-c2ccc(F)cc2)c1-c1ccncc1)C1CCCC1`, the inhibition at MAPK14 (human) [1] was determined as 66%; against MAPK14 (human) [2], 79%.
With `Cn1cc(-c2ccncc2)c(-c2ccc(F)cc2)n1`, the IC50 on MAPK14 (human) [1] was 96.7 nM and 130 nM; against MAPK14 (human) [2], 700 nM.
For the compound `CC1(C)[C@H]2CC[C@@]1(CS(=O)(=O)NCCCc1[nH]nc(-c3ccc(F)cc3)c1-c1ccncc1)C(=O)C2`, the inhibition against MAPK14 (human) [1] was found to be 38%. This compound came in with a 50% inhibitory concentration (IC50) on MAPK14 (human) [2] of less than 100 nM.
Consider `O=C(NCCCc1[nH]nc(-c2ccc(F)cc2)c1-c1ccncc1)Nc1cccc(F)c1`, for which the values for the inhibition against MAPK14 (human) [1] and against MAPK14 (human) [2] were 61% and 80%, respectively.
Turning to `C[C@H](NS(=O)(=O)c1ccccc1C#N)c1[nH]nc(-c2ccc(F)cc2)c1-c1ccncc1`, the inhibition against MAPK14 (human) [1] worked out at 69%. Further, the IC50 against MAPK14 (human) [2] is 250 nM.
For the compound `O=C(NCCc1[nH]nc(-c2ccc(F)cc2)c1-c1ccncc1)[C@H]1CCCN1`, the inhibition against MAPK14 (human) [1] worked out at 63%; against MAPK14 (human) [2] it was 89%.
In the case of `C=CCOC(=O)NCCCc1[nH]nc(-c2ccc(F)cc2)c1-c1ccncc1`, the IC50 at MAPK14 (human) [1] was 590 nM. The compound also gave an inhibition at MAPK14 (human) [2] of 79%.
Take `O=S(=O)(NCCc1[nH]nc(-c2ccc(F)cc2)c1-c1ccncc1)c1cccs1`: the inhibition at MAPK14 (human) [1] was 53%; on MAPK14 (human) [2], 87%.
On MAPK14 (human) [1], `C[C@@H](NC(=O)c1ccc(F)cc1)c1[nH]nc(-c2ccc(F)cc2)c1-c1ccncc1` registered an inhibition of 24%. The compound further came in with an IC50 on MAPK14 (human) [2] of 660 nM.
Turning to `COc1ccc(CC(=O)NCCc2[nH]nc(-c3ccc(F)cc3)c2-c2ccncc2)cc1`, the inhibition on MAPK14 (human) [1] stood at 42%; at MAPK14 (human) [2] it was 55%.
At MAPK14 (human) [1], `N/C(=C(\N)S(=O)(=O)NCc1[nH]nc(-c2ccc(F)cc2)c1-c1ccncc1)c1ccccc1` returned an IC50 of 2780 nM. In addition, the inhibition against MAPK14 (human) [2] worked out at 89%.
For the compound `CN(C)C(=O)NCCc1[nH]nc(-c2ccc(F)cc2)c1-c1ccncc1`, the inhibition on MAPK14 (human) [1] came to 52%; against MAPK14 (human) [2] it was 75%.
`COc1ccc(Cl)cc1S(=O)(=O)NCCCc1[nH]nc(-c2ccc(F)cc2)c1-c1ccncc1` showed an inhibition on MAPK14 (human) [1] of 64%. The compound further registered an IC50 at MAPK14 (human) [2] of less than 100 nM.
`CCOC(=O)CCNC(=O)NCCc1[nH]nc(-c2ccc(F)cc2)c1-c1ccncc1`: the values for the inhibition on MAPK14 (human) [1] and against MAPK14 (human) [2] were 34% and 69%, respectively.
Taken in the same sequence, the figures for `COC(=O)C1CN1C(=O)Cn1nc(-c2ccc(F)cc2)c(-c2ccncc2)c1C` (stereo not given) were 24% and 45%.
With `CC(=O)OCC(=O)NCCc1[nH]nc(-c2ccc(F)cc2)c1-c1ccncc1`, the inhibition against MAPK14 (human) [1] turned out to be 57%; at MAPK14 (human) [2], 62%.
With `O=C(NCCc1[nH]nc(-c2ccc(F)cc2)c1-c1ccncc1)c1ccccc1C(F)(F)F`, the inhibition is 27% against MAPK14 (human) [1] and 54% on MAPK14 (human) [2].
For `Cc1c(-c2ccncc2)c(-c2ccc(F)cc2)nn1CC(=O)Nc1ccc(S(=O)(=O)C(F)F)cc1` the same measures were 28% and 90%.
Taken in the same sequence, the figures for `CC(C)=CC(=O)NCCc1[nH]nc(-c2ccc(F)cc2)c1-c1ccncc1` were 25% and 67%.
Take `O=S(=O)(NCc1[nH]nc(-c2ccc(F)cc2)c1-c1ccncc1)c1cc2nnoc2c2ccccc12`: the inhibition on MAPK14 (human) [1] turned out to be 32%; on MAPK14 (human) [2] it was 50%.
At MAPK14 (human) [1], `CCCCCCCCOc1cccc(NC(=O)Cn2nc(-c3ccc(F)cc3)c(-c3ccncc3)c2C)c1` displayed a half-inhibitory concentration (IC50) greater than 10000 nM. The inhibition against MAPK14 (human) [2] came to 86%.
In the case of `Cc1c(-c2ccncc2)c(-c2ccc(F)cc2)nn1CC(=O)N(CC(C)C)CC(C)C`, the concentration for half-maximal inhibition (IC50) against MAPK14 (human) [1] is greater than 10000 nM. The compound further registered an inhibition on MAPK14 (human) [2] of 55%.
For `CCOC(=O)CNC(=O)NCCc1[nH]nc(-c2ccc(F)cc2)c1-c1ccncc1` the same measures were 1100 nM and 74%.
Take `O=C(NCCc1[nH]nc(-c2ccc(F)cc2)c1-c1ccncc1)c1ccc(F)c(F)c1F`: the inhibition turned out to be 22% against MAPK14 (human) [1] and 69% against MAPK14 (human) [2].
Consider `COc1ccccc1C(=O)NCCc1[nH]nc(-c2ccc(F)cc2)c1-c1ccncc1`, for which the inhibition on MAPK14 (human) [1] came out at 14%; at MAPK14 (human) [2], 53%.
Regarding `CCOC(=O)NC(=O)NCCc1[nH]nc(-c2ccc(F)cc2)c1-c1ccncc1`, the values for the inhibition on MAPK14 (human) [1] and on MAPK14 (human) [2] were 22% and 56%, respectively.
`CN(C)C(=O)NCc1[nH]nc(-c2ccc(F)cc2)c1-c1ccncc1` showed an inhibition at MAPK14 (human) [1] of 51%. Further, the 50% inhibitory concentration (IC50) against MAPK14 (human) [2] was determined as 110 nM.
As for `CS(=O)(=O)NCCc1[nH]nc(-c2ccc(F)cc2)c1-c1ccncc1`, the inhibition against MAPK14 (human) [1] is 57%; on MAPK14 (human) [2] it was 89%.
`O=S(=O)(NCCCc1[nH]nc(-c2ccc(F)cc2)c1-c1ccncc1)c1ccc(F)cc1F`: the figures for the inhibition against MAPK14 (human) [1] and against MAPK14 (human) [2] were 60% and 52%, respectively.
At MAPK14 (human) [1], `Cc1ccc(NC(=O)Cn2nc(-c3ccc(F)cc3)c(-c3ccncc3)c2C)cc1` came in with an IC50 greater than 10000 nM. The compound also gave an inhibition at MAPK14 (human) [2] of 85%.
For the compound `O=S(=O)(NCc1[nH]nc(-c2ccc(F)cc2)c1-c1ccncc1)C(F)(F)F`, the results for the IC50 against MAPK14 (human) [1] and on MAPK14 (human) [2] were greater than 1000 nM and 2400 nM, respectively.
On to `COc1ccc(S(=O)(=O)NCCc2[nH]nc(-c3ccc(F)cc3)c2-c2ccncc2)cc1OC`, for which the inhibition came out at 17% at MAPK14 (human) [1] and 70% against MAPK14 (human) [2].
`CC(=O)O[C@H](C)C(=O)NCCCc1[nH]nc(-c2ccc(F)cc2)c1-c1ccncc1` came in with an IC50 on MAPK14 (human) [1] of 570 nM. Besides, on MAPK14 (human) [2], the inhibition is 82%.
As to `O=C(NCc1[nH]nc(-c2ccc(F)cc2)c1-c1ccncc1)c1ccc(OC(F)(F)F)cc1`, the inhibition against MAPK14 (human) [1] amounted to 45%; at MAPK14 (human) [2], 69%.
On to `O=S(=O)(NCCCc1[nH]nc(-c2ccc(F)cc2)c1-c1ccncc1)c1ccccc1`, for which the inhibition came out at 57% at MAPK14 (human) [1] and 74% on MAPK14 (human) [2].
In the case of `O=C(NCCc1[nH]nc(-c2ccc(F)cc2)c1-c1ccncc1)N1CCOCC1`, the inhibition is 34% at MAPK14 (human) [1] and 86% against MAPK14 (human) [2].
`C[C@H](NS(=O)(=O)[C@]12CC[C@@H](CC1=O)C2(C)C)c1[nH]nc(-c2ccc(F)cc2)c1-c1ccncc1`: the inhibition against MAPK14 (human) [1] amounted to 39%. At MAPK14 (human) [2], this compound yielded an IC50 of 830 nM.
The compound `Cc1c(-c2ccncc2)c(-c2ccc(F)cc2)nn1CC(=O)N(C)CCn1ccnc1` showed an IC50 against MAPK14 (human) [1] greater than 10000 nM. Also, at MAPK14 (human) [2], the inhibition turned out to be 43%.
As to `CC(=O)OCC(=O)NCCCc1[nH]nc(-c2ccc(F)cc2)c1-c1ccncc1`, on MAPK14 (human) [1], the IC50 is 680 nM. The compound also returned an inhibition at MAPK14 (human) [2] of 74%.
With `CCOC(=O)CCOC(=O)NCc1[nH]nc(-c2ccc(F)cc2)c1-c1ccncc1`, the inhibition was 5% on MAPK14 (human) [1] and 54% on MAPK14 (human) [2].

The values are drawn from the Kinase Knowledgebase extract (Sharma et al. 2016).
